Assay results reported in patent US9458141B2, “Low molecular weight thyroid stimulating hormone receptor (TSHR) agonists” (The United States of America, as represented by the …, priority 2008, dated 2016).
Where two headings read alike, the source gives them in different places.

Target: T1, human TSHR (Homo sapiens, UniProt P16473)
T1 construct: expressed in transfected cells
Experiment: Homogeneous Time Resolved Fluorescence (HTRF) cAMP assay, TSHR cell line
Format: cell-based
Settings: for Maximum Activity compared to TSH: 100% activity = response of 30 mU/ml TSH, 0% = DMSO control, in %; for AC50: TSHR cell line, 30 minute incubation; for Emax: read-out: Maximum Activity compared to TSH, 100% activity = response of 30 mU/ml TSH, 0% = DMSO control; call rule not given here

T1 sequence (P16473 21-764): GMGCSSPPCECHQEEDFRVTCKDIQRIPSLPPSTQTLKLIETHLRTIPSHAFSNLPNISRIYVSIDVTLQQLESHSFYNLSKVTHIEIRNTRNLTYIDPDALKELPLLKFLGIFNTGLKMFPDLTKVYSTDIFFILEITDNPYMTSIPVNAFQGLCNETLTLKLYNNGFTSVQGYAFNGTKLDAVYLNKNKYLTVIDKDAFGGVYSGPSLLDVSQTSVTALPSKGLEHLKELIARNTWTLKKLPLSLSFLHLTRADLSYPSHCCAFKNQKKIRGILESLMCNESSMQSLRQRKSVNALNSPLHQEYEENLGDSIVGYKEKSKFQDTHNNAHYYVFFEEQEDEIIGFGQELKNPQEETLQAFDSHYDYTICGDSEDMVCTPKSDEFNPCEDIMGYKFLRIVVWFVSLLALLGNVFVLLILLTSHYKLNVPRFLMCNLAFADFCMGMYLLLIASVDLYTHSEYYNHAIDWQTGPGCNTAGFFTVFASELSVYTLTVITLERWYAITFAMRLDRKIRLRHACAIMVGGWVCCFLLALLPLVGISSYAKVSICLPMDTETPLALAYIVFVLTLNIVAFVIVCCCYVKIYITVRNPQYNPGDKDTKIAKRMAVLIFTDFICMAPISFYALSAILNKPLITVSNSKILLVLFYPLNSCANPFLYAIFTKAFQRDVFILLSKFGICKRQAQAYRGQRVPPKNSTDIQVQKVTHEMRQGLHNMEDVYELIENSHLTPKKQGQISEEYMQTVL

SMILES	Maximum Activity compared to TSH	AC50 (HTRF cAMP, read-out: AC50) [µM]	AC50 (HTRF cAMP)	other results
COc1ccc(C2Nc3ccccc3C(=O)N2Cc2ccccc2)cc1COc1ccc(NC(C)=O)cc1 (single isomer, unassigned) [Structure 7]	152.47			AC50 (AC50, HTRF cAMP): 8.91 µM
COc1ccc(CN(Cc2ccccc2)C(=O)c2ccc(OC)cc2O)cc1 [Structure 136]	37.00	28.2		
COc1ccc(C2Nc3ccccc3C(=O)N2Cc2ccccc2Cl)cc1COc1ccc(NC(C)=O)cc1 (stereo not shown) [Structure 273]	11.00	2.51		
CC(=O)Nc1ccc(OCc2cccc(C3Nc4ccccc4C(=O)N3Cc3ccco3)c2)cc1 (stereo not shown) [Structure 165]			inactive	
COc1ccc(CN(Cc2ccccc2)C(=O)c2ccccc2)cc1COc1ccc(NC(C)=O)cc1 [Structure 58]	93.09	8.91		
COc1ccc(C2Nc3ccccc3C(=O)N2Cc2ccco2)cc1COc1ccc(NC(C)=O)cc1 (stereo not shown) [Structure 53]	141.76	12.6		
O=C1c2ccccc2NC(c2ccccc2)N1Cc1ccco1 (stereo not shown) [Structure 255]			inactive	
COc1ccc(C(=O)N(Cc2ccccc2)Cc2ccccc2)cc1COc1ccc(NC(C)=O)cc1 [Structure 167]	24.50	14.1		
COc1ccc(C2Nc3ccccc3C(=O)N2C2CCCC2)cc1COc1ccc(NC(C)=O)cc1 (stereo not shown) [Structure 258]	21.50	28.2		
O=C(c1ccccc1O)N(Cc1ccccc1)Cc1ccccc1 [Structure 194]	27.50	31.6		
COc1ccc(C2Nc3ccccc3C(=O)N2Cc2ccco2)cc1COc1ccc(NC(C)=O)cc1 (stereo not shown) [Structure 20]	156.28	14.1		
O=C1c2ccccc2NC(c2cc(Br)c3c(c2)OCO3)N1Cc1ccco1 (stereo not shown) [Structure 251]			inactive	
COc1ccc(CN(Cc2ccccc2)C(=O)c2ccccc2)cc1COc1ccc(NC(C)=O)cc1 [Structure 57]	100.67	14.1		
COc1ccc(C2Nc3ccc(Cl)cc3C(=O)N2Cc2ccccc2)cc1COc1ccc(C(N)=O)cc1 (stereo not shown) [Structure 187]			inactive	
COc1ccc(C2Nc3ccccc3C(=O)N2Cc2ccccc2)cc1COc1ccccc1OC (stereo not shown) [Structure 172]			inactive	
COc1ccc(C2Nc3ccccc3C(=O)N2Cc2cccnc2)cc1COc1ccc(NC(C)=O)cc1 (stereo not shown) [Structure 99]		35.5		Emax: 104%
CCCCN1C(=O)c2ccccc2NC1c1ccc(OC)c(COc2ccc(NC(C)=O)cc2)c1 (stereo not shown) [Structure 39]	123.60	20		
COc1ccc(C(=O)C2C(=O)C(=O)N(Cc3ccco3)C2c2cccs2)cc1 (stereo not shown) [Structure 160]		50.1		Emax: 28%
COc1ccc(C2Nc3ccccc3C(=O)N2Cc2cccc(Cl)c2)cc1COc1ccc(NC(C)=O)cc1 (stereo not shown) [Structure 44]	105.58	7.08		
COc1ccc(-c2nc3ccccc3c(=O)n2Cc2ccccc2)cc1COc1ccc(NC(C)=O)cc1 [Structure 95]	138.18	12.6		
COc1ccc(CN(Cc2ccccc2)C(=O)c2ccccc2O)cc1 [Structure 189]	24.00	22.4		

SMILES	Maximum Activity compared to TSH	AC50 (HTRF cAMP, read-out: AC50) [µM]	AC50 (HTRF cAMP)	other results
COc1ccc(-c2nc3ccc(NC(C)=O)cc3c(=O)n2Cc2cccc(Cl)c2)cc1COc1ccc(NC(C)=O)cc1 [Structure 155]	25.50	12.6		
COc1ccc(O)c(C2Nc3ccccc3C(=O)N2Cc2ccccc2)c1 (stereo not shown) [Structure 260]			inactive	
COc1ccc(C(=O)C2C(=O)C(=O)N(Cc3ccco3)C2c2cccs2)cc1 (stereo not shown) [Structure 205]			inactive	
O=c1c2ccccc2nc(-c2ccccc2O)n1Cc1ccccc1 [Structure 192]			inactive	
COc1ccc(C2Nc3cccc(OC)c3C(=O)N2Cc2ccccc2)cc1COc1ccc(NC(C)=O)cc1 (stereo not shown) [Structure 274]	28.00	20		
COc1ccc(C2Nc3ccccc3C(=O)N2Cc2cccc(Cl)c2)cc1COc1ccc(NC(C)=O)cc1 (stereo not shown) [Structure 11]	113.94	3.16		
COc1ccc(CN(Cc2ccccc2)C(=O)c2ccno2)cc1COc1ccc(NC(C)=O)cc1 [Structure 249]	38.00	50.1		
COc1ccc(C2Nc3ccccc3C(=O)N2Cc2cccc(Cl)c2)cc1COc1ccc(NC(C)=O)cc1 (stereo not shown) [Structure 12]	91.43	3.98		
COc1ccc(CN(Cc2ccccc2)C(=O)c2ccccc2O)cc1COc1ccc(NC(C)=O)cc1 [Structure 65]		14.1		Emax: 51.6%
COc1ccc(CN(Cc2ccccc2)C(=O)c2ccco2)cc1COc1ccc(NC(C)=O)cc1 [Structure 96]		14.1		Emax: 125%
COc1ccc(CN(Cc2ccccc2)C(=O)c2ccc(O)cc2)cc1COc1ccc(NC(C)=O)cc1 [Structure 73]	75.04	28.2		
COc1ccc(-c2nc3ccc(NC(=O)CO)cc3c(=O)n2Cc2cccc(Cl)c2)cc1COc1ccc(NC(C)=O)cc1 [Structure 292]			inactive	
COc1ccc(CN(Cc2ccccc2)C(C)=O)cc1COc1ccc(NC(C)=O)cc1 [Structure 161]			inactive	
CC(C)c1ccc(C2C3=C(CC(c4ccco4)CC3=O)Nc3nc(C(F)(F)F)nn32)cc1 (stereo not shown) [Structure 268]			inactive	
O=C1CC(c2ccco2)CC2=C1C(c1cccnc1)n1nc(C(F)(F)F)nc1N2 (stereo not shown) [Structure 171]			inactive	
COc1ccc(O)c(-c2nc3ccccc3c(=O)n2Cc2ccccc2)c1 [Structure 211]			inactive	
CC(=O)Nc1cccc(OCc2cccc(C3Nc4ccccc4C(=O)N3Cc3ccco3)c2)c1 (stereo not shown) [Structure 193]			inactive	
COc1ccc(C2Nc3ccccc3C(=O)N2Cc2ccccc2)cc1Oc1ccc(NC(C)=O)cc1 (stereo not shown) [Structure 163]			inactive	
O=C1c2ccccc2NC(c2cc(Br)c3c(c2)OCO3)N1Cc1ccco1 (stereo not shown) [Structure 148]			inactive	
COc1ccc(C2Nc3ccccc3C(=O)N2Cc2ccco2)cc1 (stereo not shown) [Structure 178]			inactive	
COc1ccc(C(=O)N(Cc2ccco2)Cc2cccs2)c(O)c1 [Structure 101]	128.51	28.2		

SMILES	Maximum Activity compared to TSH	AC50 (HTRF cAMP, read-out: AC50) [µM]	AC50 (HTRF cAMP)	other results
COc1ccc(CN(Cc2ccccc2)C(=O)COC(C)=O)cc1COc1ccc(NC(C)=O)cc1 [Structure 236]	32.00	35.5		
COc1ccc(C2Nc3ccccc3C(=O)N2Cc2ccco2)cc1COc1ccc([N+](=O)[O-])cc1 (stereo not shown) [Structure 289]			inactive	
CCC(=O)Nc1ccc(OCc2cc(C3Nc4ccccc4C(=O)N3Cc3ccccc3)ccc2OC)cc1 (stereo not shown) [Structure 177]		5.62		Emax: 29%
COc1ccc(CN(Cc2ccccc2)C(=O)c2ccccc2O)cc1COc1ccc(NC(C)=O)cc1 [Structure 220]	32.00	17.8		
COc1ccc(C2Nc3ccc(NC(=O)CO)cc3C(=O)N2Cc2cccc(Cl)c2)cc1COc1ccc(NC(C)=O)cc1 (stereo not shown) [Structure 43]	128.45	10		
COc1cc(C2Nc3ccccc3C(=O)N2Cc2ccccc2)ccc1OCc1ccc(NC(C)=O)cc1 (stereo not shown) [Structure 230]			inactive	
COc1ccc(C2Cc3ccccc3C(=O)N2Cc2ccccc2)cc1COc1ccc(NC(C)=O)cc1 (stereo not shown) [Structure 54]	115.69	10		
COc1ccc(C2Nc3ccc(NC(C)=O)cc3C(=O)N2Cc2cccc(Cl)c2)cc1COc1ccc(NC(C)=O)cc1 (stereo not shown) [Structure 10]		7.94		Emax: 122%
COc1ccc([C@H]2[C@H](c3ccccc3)C(=O)N2Cc2ccccc2)cc1COc1ccc(NC(C)=O)cc1 [Structure 90]	110.89			
COc1ccc(CN(Cc2ccccc2)C(=O)c2ccccc2N)cc1COc1ccc(NC(C)=O)cc1 [Structure 100]	190.35	35.5		
O=C1c2ccccc2NC(c2ccccc2)N1Cc1ccco1 (stereo not shown) [Structure 254]			inactive	
COc1ccc(C2Nc3ccccc3C(=O)N2Cc2ccccc2)cc1COc1ccc(NC(C)=O)cc1 (single isomer, unassigned) [Structure 25]	207.56			AC50 (AC50, HTRF cAMP): 8.91 µM
COc1ccc(C2Nc3ccccc3C(=O)N2Cc2ccccc2C)cc1COc1ccc(NC(C)=O)cc1 (stereo not shown) [Structure 201]			inactive	
O=C(c1ccccc1O)N(Cc1ccccc1)Cc1ccccc1 [Structure 129]	51.77	28.2		
COc1ccc(C(=O)N(Cc2ccco2)Cc2ccco2)c(O)c1 [Structure 122]	61.90	50.1		
COc1ccc(C(=O)N(Cc2ccccc2)Cc2ccc(OC)c(COc3ccc(NC(C)=O)cc3)c2)cc1 [Structure 45]	141.85	14.1		
COc1ccc(C2Nc3ccccc3C(=O)N2Cc2ccccc2)cc1COc1ccccc1OC (stereo not shown) [Structure 229]		8.91		Emax: 23.5%
COc1ccc(C2Nc3ccccc3C(=O)N2Cc2ccco2)cc1COc1ccc(N)cc1 (stereo not shown) [Structure 282]			inactive	
COc1ccc(OCc2cc(C3Nc4ccccc4C(=O)N3Cc3ccccc3)ccc2OC)cc1 (stereo not shown) [Structure 87]		3.98		Emax: 38%
COc1ccc(CN(Cc2ccccc2)C(=O)c2ccccc2)cc1COc1ccc(NC(C)=O)cc1 [Structure 98]	140.53	14.1		
COc1ccc(-c2nc3ccccc3c(=O)n2Cc2ccccc2)cc1COc1ccc(NC(C)=O)cc1 [Structure 17]	93.46	10		
